Experimental data taken from patent publication US20240190858A1, “CRYSTALLINE FORMS, PHARMACEUTICAL COMPOSITIONS AND METHODS OF USE THEREOF” (priority 2022, published 2024).
Values belong to the molecule of their own block, whether it stands above or below them.

Assays:
[1] = system: MTAP-null OCI-LY19 cell line tumors; assay: OCI-LY19 MTAP-null xenograft, switch from TNG908 to compound of Formula (I); format: in vivo, mice; settings: 120 mg/kg BID
Excerpt: The data is shown in FIG. 10A and FIG. 10B as mean±SEM. Regression is defined as final mean tumor volume <30% initial mean tumor volume.

[2] = Oral pharmacokinetics in cynomolgus monkey; format: in vivo, cynomolgous monkeys; settings: 3 mg/kg via oral gavage, n=3
Excerpt: The dotted lines indicate the HAP1 MTAP-null and MTAP WT GI50s from a 7-day viability assay the compound. The data is presented as mean±SD.

[3] = system: MTAP-null NCI-H838 NSCLC CDX; assay: MTAP-null NCI-H838 NSCLC CDX model, combination with AGI-41998; format: in vivo; settings: AGI-41998 at 10 mg/kg QD, minimum of 28 days
Experimental: Briefly the groups were treated for a minimum of 28 days and tumor-volumes were monitored for the indicated time period.

Molecule: Cc1cc(NC(=O)C(=O)N2C[C@@H](C)CC[C@@H]2c2ccc3scnc3c2)cnc1N [TNG908]
tumor response under continuous dosing [1]: appear to have developed resistance

pharmacokinetic properties [2]: good pharmacokinetic properties
Molecule: CCc1cc(NC(=O)C(=O)N2C[C@@H](C)CC[C@@H]2c2ccc3sc(C4CCN(C)CC4)nc3c2)cnc1N [compound of Formula (I), N-(6-amino-5-ethylpyridin-3-yl)-2-((2R,5S)-5-methyl-2-(2-(1-methylpiperidin-4-yl)benzo[d]thiazol-5-yl)piperidin-1-yl)-2-oxoacetamide]

Molecule: AGI-41998
change in tumor volume [3]: increases in tumor volumes
